Data on 29 molecules can be found in US12655120B2, “GPR52 modulator compounds” (NXERA PHARMA UK LIMITED, priority 2020, dated 2026).

In general, Emax refers to the greatest response seen or fitted, relative to the assay's reference.

The target of the experiment is T1, human GPR52 (Homo sapiens, UniProt Q9Y2T5).
T1 construct: expressed in transfected cells; host or cells: HEKf suspension cells infected with BacMam virus
In words: GPR52 Agonist Functional cAMP Assay. In kind it is cell-based. As to conditions: for EC50: HEKf cells infected with human GPR52 BacMam, HTRF cAMP, 30 min at 37° C., read-out: pEC50 average (converted); for Emax: normalised to DMSO (0%) and maximal compound 7m (J. Med. Chem., 2014, 57, 5226) response (100%). On the procedure: HEKf suspension cells were infected for 24 h with 0.1% v/v human GPR52 expressing BacMam virus, a modified baculovirus designed for mammalian gene expression. Following BacMam infection, cells were pelleted by centrifugation (335 g, 5 min), resuspended in cell freezing medium (Sigma) and frozen at −150° C. until required. On experiment day, 25 nL GPR52 compound dilutions, prepared in DMSO, were stamped onto proxiplates (PerkinElmer) by a LabCyte ECHO acoustic dispenser. Frozen cells were thawed and resuspended in assay stimulation buffer (Cisbio) containing 0.5 mM 3-iso-butyl-1-methylxanthine (IBMX, Sigma) to achieve a density of 2000 cells per well. 10 μl cells were added to assay plates using a Multidrop Combi Reagent Dispenser (ThermoFisher) before centrifugation (335 g, 1 min). Cells were incubated with compounds at 37° C. for 30 min prior to addition of cAMP detection reagents (HiRange cAMP kit, Cisbio) which were prepared according to the manufacturer's instructions. Plates were shaken for 1 h at room temperature before reading on a PHERAstar FS plate reader (BMG Labtech) using standard HTRF settings. HTRF ratios were obtained by dividing the acceptor emissions (665 nm) by the donor emissions (620 nm) and multiplying by 10,000.
On the technique in general: Time-resolved FRET reads energy transfer from a long-lived donor to a nearby acceptor.

T1 sequence (Q9Y2T5 whole entry): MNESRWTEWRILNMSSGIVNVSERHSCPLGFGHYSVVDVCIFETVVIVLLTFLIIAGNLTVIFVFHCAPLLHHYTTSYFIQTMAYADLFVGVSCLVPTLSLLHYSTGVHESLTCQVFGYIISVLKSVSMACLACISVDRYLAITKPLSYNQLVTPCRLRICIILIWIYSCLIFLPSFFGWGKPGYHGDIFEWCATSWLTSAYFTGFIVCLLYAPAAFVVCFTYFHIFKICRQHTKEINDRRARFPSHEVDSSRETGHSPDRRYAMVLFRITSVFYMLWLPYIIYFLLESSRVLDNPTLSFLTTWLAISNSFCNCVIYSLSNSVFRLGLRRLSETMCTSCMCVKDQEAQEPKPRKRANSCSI

On to `COc1nn(-c2cc(Cc3cc(F)cc(C(F)(F)F)c3)ccn2)cc1C(N)=O` [Example 14, 1-(4-(3-fluoro-5-(trifluoromethyl)benzyl)pyridin-2-yl)-3-methoxy-1H-pyrazole-4-carboxamide], for which the EC50 is 31.6 nM and the Emax came to 95%.
In the same order, the values of `Cc1cn(-c2cccc(Cc3cc(F)cc(C(F)(F)F)c3)n2)nc1C(N)=O` [Example 15, 1-(6-(3-fluoro-5-(trifluoromethyl)benzyl)pyridin-2-yl)-4-methyl-1H-pyrazole-3-carboxamide] are 79.4 nM and 92%.
In the same order, the values of `Cc1nn(-c2ccnc(Cc3cc(F)cc(C(F)(F)F)c3)c2)cc1C(=O)N1CCCC1` [Example 16, (1-(2-(3-fluoro-5-(trifluoromethyl)benzyl)pyridin-4-yl)-3-methyl-1H-pyrazol-4-yl)(pyrrolidin-1-yl)methanone] are 31.6 nM and 93%.
On to `CNC(=O)c1cn(-c2ccnc(Cc3cc(F)cc(C(F)(F)F)c3)c2)nc1C` [Example 17, 1-(2-(3-fluoro-5-(trifluoromethyl)benzyl)pyridin-4-yl)-N,3-dimethyl-1H-pyrazole-4-carboxamide], for which the EC50 is 10 nM and the Emax is 93%.
The matching figures for `Cc1nn(-c2ccnc(Cc3cc(F)cc(C(F)(F)F)c3)c2)cc1C(=O)N(C)C` [Example 18, 1-(2-(3-fluoro-5-(trifluoromethyl)benzyl)pyridin-4-yl)-N,N,3-trimethyl-1H-pyrazole-4-carboxamide]: 79.4 nM and 92%.
Turning to `Cc1nn(-c2ccnc(Cc3cc(F)cc(C(F)(F)F)c3)c2)cc1C(=O)NC1COC1` [Example 19, 1-(2-(3-fluoro-5-(trifluoromethyl)benzyl)pyridin-4-yl)-3-methyl-N-(oxetan-3-yl)-1H-pyrazole-4-carboxamide], the EC50 was 15.8 nM and the Emax was determined as 99%.
In the same order, the values of `Cc1nn(-c2ccnc(Cc3cc(F)cc(C(F)(F)F)c3)c2)cc1C(=O)NCCO` [Example 20, 1-(2-(3-fluoro-5-(trifluoromethyl)benzyl)pyridin-4-yl)-N-(2-hydroxyethyl)-3-methyl-1H-pyrazole-4-carboxamide] are 15.8 nM and 96%.
In the same order, the values of `COCCNC(=O)c1cn(-c2ccnc(Cc3cc(F)cc(C(F)(F)F)c3)c2)nc1C` [Example 21, 1-(2-(3-fluoro-5-(trifluoromethyl)benzyl)pyridin-4-yl)-N-(2-methoxyethyl)-3-methyl-1H-pyrazole-4-carboxamide] are 39.8 nM and 96%.
The matching figures for `NC(=O)c1cn(-c2ccnc(Cc3cc(F)cc(C(F)(F)F)c3)c2)nc1Cl` [Example 22, 3-chloro-1-(2-(3-fluoro-5-(trifluoromethyl)benzyl)pyridin-4-yl)-1H-pyrazole-4-carboxamide]: 15.8 nM and 96%.
With `NC(=O)c1cn(-c2ccnc(Cc3cc(F)cc(C(F)(F)F)c3)c2)nc1C(F)F` [Example 23, 3-(difluoromethyl)-1-(2-(3-fluoro-5-(trifluoromethyl)benzyl)pyridin-4-yl)-1H-pyrazole-4-carboxamide], the EC50 is 25.1 nM and the Emax was determined as 87%.
Take `NC(=O)c1cn(-c2ccnc(Cc3cc(F)cc(C(F)(F)F)c3)c2)nc1C(F)(F)F` [Example 24, 1-(2-(3-fluoro-5-(trifluoromethyl)benzyl)pyridin-4-yl)-3-(trifluoromethyl)-1H-pyrazole-4-carboxamide]: the EC50 is 25.1 nM and the Emax worked out at 91%.
The matching figures for `CCc1nn(-c2ccnc(Cc3cc(F)cc(C(F)(F)F)c3)c2)cc1C(N)=O` [Example 25, 3-ethyl-1-(2-(3-fluoro-5-(trifluoromethyl)benzyl)pyridin-4-yl)-1H-pyrazole-4-carboxamide]: 10 nM and 99%.
In the same order, the values of `N#Cc1nn(-c2ccnc(Cc3cc(F)cc(C(F)(F)F)c3)c2)cc1C(N)=O` [Example 26, 3-cyano-1-(2-(3-fluoro-5-(trifluoromethyl)benzyl)pyridin-4-yl)-1H-pyrazole-4-carboxamide] are 100 nM and 87%.
In the same order, the values of `NC(=O)c1cn(-c2ccnc(Cc3cc(F)cc(C(F)(F)F)c3)c2)nc1C1CC1` [Example 27, 3-cyclopropyl-1-(2-(3-fluoro-5-(trifluoromethyl)benzyl)pyridin-4-yl)-1H-pyrazole-4-carboxamide] are 25.1 nM and 97%.
For `CNC(=O)c1cc(C)n(-c2cc(Cc3cc(F)cc(C(F)(F)F)c3)ccn2)n1` [Example 28, 1-(4-(3-fluoro-5-(trifluoromethyl)benzyl)pyridin-2-yl)-N,5-dimethyl-1H-pyrazole-3-carboxamide], the EC50 is 31.6 nM and the Emax came to 95%.
The matching figures for `NC(=O)c1ccn(-c2ccnc(Cc3cc(F)cc(C(F)(F)F)c3)c2)n1` [Example 29, 1-(2-(3-fluoro-5-(trifluoromethyl)benzyl)pyridin-4-yl)-1H-pyrazole-3-carboxamide]: 1260 nM and 86%.
In the same order, the values of `Cc1cc(C(N)=O)nn1-c1cc(Cc2cc(F)cc(C(F)(F)F)c2)ccn1` [Example 30, 1-(4-(3-fluoro-5-(trifluoromethyl)benzyl)pyridin-2-yl)-5-methyl-1H-pyrazole-3-carboxamide] are 158 nM and 93%.
In the same order, the values of `CNC(=O)c1ccn(-c2cc(Cc3cc(F)cc(C(F)(F)F)c3)ccn2)n1` [Example 31, 1-(4-(3-fluoro-5-(trifluoromethyl)benzyl)pyridin-2-yl)-N-methyl-1H-pyrazole-3-carboxamide] are 20 nM and 87%.
With `CN(C)C(=O)c1ccn(-c2cc(Cc3cc(F)cc(C(F)(F)F)c3)ccn2)n1` [Example 32, 1-(4-(3-fluoro-5-(trifluoromethyl)benzyl)pyridin-2-yl)-N,N-dimethyl-1H-pyrazole-3-carboxamide], the EC50 is 200 nM and the Emax stood at 75%.
As for `O=C(c1ccn(-c2cc(Cc3cc(F)cc(C(F)(F)F)c3)ccn2)n1)N1CCCC1` [Example 33, (1-(4-(3-fluoro-5-(trifluoromethyl)benzyl)pyridin-2-yl)-1H-pyrazol-3-yl)(pyrrolidin-1-yl)methanone], the EC50 is 126 nM and the Emax was found to be 87%.
In the same order, the values of `O=C(NC1COC1)c1ccn(-c2cc(Cc3cc(F)cc(C(F)(F)F)c3)ccn2)n1` [Example 34, 1-(4-(3-fluoro-5-(trifluoromethyl)benzyl)pyridin-2-yl)-N-(oxetan-3-yl)-1H-pyrazole-3-carboxamide] are 631 nM and 77%.
The matching figures for `O=C(NCCO)c1ccn(-c2cc(Cc3cc(F)cc(C(F)(F)F)c3)ccn2)n1` [Example 35, 1-(4-(3-fluoro-5-(trifluoromethyl)benzyl)pyridin-2-yl)-N-(2-hydroxyethyl)-1H-pyrazole-3-carboxamide]: 398 nM and 83%.
As to `COCCNC(=O)c1ccn(-c2cc(Cc3cc(F)cc(C(F)(F)F)c3)ccn2)n1` [Example 36, 1-(4-(3-fluoro-5-(trifluoromethyl)benzyl)pyridin-2-yl)-N-(2-methoxyethyl)-1H-pyrazole-3-carboxamide], the EC50 is 126 nM and the Emax came to 87%.
In the same order, the values of `Cc1nn(-c2cc(Cc3cc(F)cc(C(F)F)c3)ccn2)cc1C(N)=O` [Example 37, 1-(4-(3-(difluoromethyl)-5-fluorobenzyl)pyridin-2-yl)-3-methyl-1H-pyrazole-4-carboxamide] are 79.4 nM and 96%.
Take `NC(=O)c1ccn(-c2cc(Cc3cc(F)cc(C(F)F)c3)ccn2)n1` [Example 38, 1-(4-(3-(difluoromethyl)-5-fluorobenzyl)pyridin-2-yl)-1H-pyrazole-3-carboxamide]: the EC50 is 20 nM and the Emax came to 93%.
`Cc1nn(-c2cc(Cc3cc(F)cc(C(F)(F)F)c3)ccn2)c(CO)c1C(=O)NCCO` [Example 40, 1-(4-(3-fluoro-5-(trifluoromethyl)benzyl)pyridin-2-yl)-N-(2-hydroxyethyl)-5-(hydroxymethyl)-3-methyl-1H-pyrazole-4-carboxamide] returned an Emax of 101%.
The same measure, in the same setting: the result for `Cc1nn(-c2ccnc(Cc3cc(F)cc(C(F)(F)F)c3)c2)c(CO)c1C(N)=O` [Example 41, 1-(2-(3-fluoro-5-(trifluoromethyl)benzyl)pyridin-4-yl)-5-(hydroxymethyl)-3-methyl-1H-pyrazole-4-carboxamide] reads 98%.
On the same count and under the same terms, the same measure for `Cc1nn(-c2ccnc(Cc3cc(F)cc(C(F)(F)F)c3)c2)c(CO)c1C(=O)NCCO` [Example 42, 1-(2-(3-fluoro-5-(trifluoromethyl)benzyl)pyridin-4-yl)-N-(2-hydroxyethyl)-5-(hydroxymethyl)-3-methyl-1H-pyrazole-4-carboxamide]: 100%; for `CNC(=O)c1c(C)nn(-c2cc(Cc3cc(F)cc(C(F)(F)F)c3)ccn2)c1CO` [Example 43, 1-(4-(3-fluoro-5-(trifluoromethyl)benzyl)pyridin-2-yl)-5-(hydroxymethyl)-N,3-dimethyl-1H-pyrazole-4-carboxamide]: 101%.
